Measurements reported in patent US8785399B2, “Antibacterial peptides” (Spiderbiotech S.R.A., priority 2008, dated 2014).
Values after ≈ are worked out from the molar mass of the structure shown. Positions of bridges follow the written chain, without caps; N, C: chain ends. Non-standard residues stand in square brackets, D forms with d. Residues, ends and D or L forms follow the SMILES beside them. Chains are numbered I, II in the order given. Aoc = NCCCCCCCC(=O)O; Ava = NCCCCC(=O)O; βAla = NCCC(=O)O

Assays:
E. coli ATCC 25922 = test: MIC by broth microdilution, E. coli reference strain; type: cell-based, Escherichia coli; conditions: ATCC 25922
Description: (§1) Determination of MIC. MICs were determined in MHB by the broth microdilution methodology, according to CLSI procedure (formerly NCCLS, Ref. 11) by using final bacterial inocula of 1-5×10^5 CFU/mL. Assays were performed in sterile 96-well microtiter plates with round bottom wells (Corning Costar). Plates were incubated at 37° C. and read after 20-24 h. MIC was defined as the lowest drug concentration causing complete suppression of visible bacterial growth. All compounds were dissolved in (5% v/v DMSO).
All natural aminoacids have been divided into three groups based on their chemical-physical properties. A total amount of 27 minilibraries, each one containing six peptide in equimolar amounts, were obtained and assayed against E. coli ATCC 25922 as reference strain. MIC (Minimum Inhibitory Concentration) is defined as the lowest concentration inhibiting 100% of visible growth.

[1] = tested on: Pseudomonas aeruginosa ATCC 27853; test: MIC by broth microdilution, P. aeruginosa reference strain; type: cell-based; conditions: ATCC 27853
Description: as §1
(§2) These peptides were synthesized individually, in order to assay the activity of each sequence.

[2] = tested on: Klebsiella pneumoniae ATCC 10031; test: MIC by broth microdilution, K. pneumoniae reference strain; type: cell-based; conditions: ATCC 10031
Description: as §1, §2

[3] = tested on: Staphylococcus aureus ATCC 25923
Description: as §1, §2

| Compound | MIC (ug/mL) E. coli (E. coli ATCC 25922) [µg/mL] | MIC (ug/mL) P. aeruginosa [1] [µg/mL] | MIC (ug/mL) K. pneumoniae [2] [µg/mL] | MIC (ug/mL) S. aureus [3] [µg/mL] |
| --- | --- | --- | --- | --- |
| CC[C@H](C)[C@H](NC(=O)[C@H](CCCCN)NC(=O)[C@H](CCCCN)NC(=O)[C@H](CCC(N)=O)NC(=O)CCCCCCCN)C(=O)N[C@@H](CCCNC(=N)N)C(=O)N[C@H](C(=O)N[C@@H](CCCNC(=N)N)C(=O)N[C@@H](CC(C)C)C(=O)N[C@@H](CO)C(=O)N[C@@H](C)C(N)=O)C(C)C [ID17, H-8-Aoa-QKKIRVRLSA-NH2] (H-[Aoc]QKKIRVRLSA-NH2) | 64 (≈ 47.8 µM) | >64 | >64 | – |
| CC[C@H](C)[C@H](NC(=O)[C@H](CCCCN)NC(=O)[C@H](CCCCN)NC(=O)[C@H](CCC(N)=O)NC(=O)CN)C(=O)N[C@@H](CCCNC(=N)N)C(=O)N[C@H](C(=O)N[C@@H](CCCNC(=N)N)C(=O)N[C@@H](CC(C)C)C(=O)N[C@@H](CO)C(=O)N[C@@H](C)C(=O)NCCCC[C@H](NC(=O)[C@H](C)NC(=O)[C@H](CO)NC(=O)[C@H](CC(C)C)NC(=O)[C@H](CCCNC(=N)N)NC(=O)[C@@H](NC(=O)[C@H](CCCNC(=N)N)NC(=O)[C@@H](NC(=O)[C@H](CCCCN)NC(=O)[C@H](CCCCN)NC(=O)[C@H](CCC(N)=O)NC(=O)CN)[C@@H](C)CC)C(C)C)C(=O)NCCC(N)=O)C(C)C [ID20, (H-G-QKKIRVRLSA)2-Lys-β-Ala-NH2] (I: H-GQKKIRVRLSAK[βAla]-NH2 / II: H-GQKKIRVRLSA; amide I:12-II:C) | 16 to 32 | >64 | >64 | – |
| H-QWKIRVRLSA-OH [ID12, H-Q-W-KIRVRLSA-OH] | 64 | 64 | >512 | >512 |
| CC[C@H](C)[C@H](NC(=O)[C@H](CCCCN)NC(=O)[C@H](CCCCN)NC(=O)[C@H](Cc1c[nH]c2ccccc12)NC(=O)CCCCCCCN)C(=O)N[C@@H](CCCNC(=N)N)C(=O)N[C@H](C(=O)N[C@@H](CCCNC(=N)N)C(=O)N[C@@H](CC(C)C)C(=O)N[C@@H](CO)C(=O)N[C@@H](C)C(N)=O)C(C)C [ID15, H-8-Aoa-W-KKIRVRLSA-NH2] (H-[Aoc]WKKIRVRLSA-NH2) | 32 (≈ 22.9 µM) | >64 | >64 | – |
| H-QKKIRVRLSA-OH [ID1, H-QKKIRVRLSA-OH, reference compound] | – | >512 | >512 | – |
| H-FKKIRVRLSA-OH [ID2, H-F-KKIRVRLSA-OH] | 256 | 256 | 512 | 512 |
| CC[C@H](C)[C@H](NC(=O)[C@H](CCCCN)NC(=O)[C@H](Cc1c[nH]c2ccccc12)NC(=O)[C@H](CCC(N)=O)NC(=O)CCCCN)C(=O)N[C@@H](CCCNC(=N)N)C(=O)N[C@H](C(=O)N[C@@H](CCCNC(=N)N)C(=O)N[C@@H](CC(C)C)C(=O)N[C@@H](CO)C(=O)N[C@@H](C)C(=O)NCCCC[C@H](NC(=O)[C@H](C)NC(=O)[C@H](CO)NC(=O)[C@H](CC(C)C)NC(=O)[C@H](CCCNC(=N)N)NC(=O)[C@@H](NC(=O)[C@H](CCCNC(=N)N)NC(=O)[C@@H](NC(=O)[C@H](CCCCN)NC(=O)[C@H](Cc1c[nH]c2ccccc12)NC(=O)[C@H](CCC(N)=O)NC(=O)CCCCN)[C@@H](C)CC)C(C)C)C(=O)NCCC(N)=O)C(C)C [ID22, (H-5-Ava-Q-W-KIRVRLSA)2-Lys-β-Ala-NH2] (I: H-[Ava]QWKIRVRLSAK[βAla]-NH2 / II: H-[Ava]QWKIRVRLSA; amide I:12-II:C) | 16 (≈ 5.53 µM) | >64 | >64 | – |
| CC[C@H](C)[C@H](NC(=O)[C@H](CCCCN)NC(=O)[C@H](Cc1c[nH]c2ccccc12)NC(=O)[C@H](CCC(N)=O)NC(=O)CCCCCCCN)C(=O)N[C@@H](CCCNC(=N)N)C(=O)N[C@H](C(=O)N[C@@H](CCCNC(=N)N)C(=O)N[C@@H](CC(C)C)C(=O)N[C@@H](CO)C(=O)N[C@@H](C)C(N)=O)C(C)C [ID16, H-8-Aoa-Q-W-KIRVRLSA-NH2] (H-[Aoc]QWKIRVRLSA-NH2) | 32 (≈ 22.9 µM) | >64 | >64 | – |
| H-YKKIRVRLSA-OH [ID7, H-Y-KKIRVRLSA-OH] | 256 | 256 | >512 | >512 |
| CC[C@H](C)[C@H](NC(=O)[C@H](CCCCN)NC(=O)[C@H](Cc1c[nH]c2ccccc12)NC(=O)[C@H](CCC(N)=O)NC(=O)CN)C(=O)N[C@@H](CCCNC(=N)N)C(=O)N[C@H](C(=O)N[C@@H](CCCNC(=N)N)C(=O)N[C@@H](CC(C)C)C(=O)N[C@@H](CO)C(=O)N[C@@H](C)C(=O)NCCCC[C@H](NC(=O)[C@H](C)NC(=O)[C@H](CO)NC(=O)[C@H](CC(C)C)NC(=O)[C@H](CCCNC(=N)N)NC(=O)[C@@H](NC(=O)[C@H](CCCNC(=N)N)NC(=O)[C@@H](NC(=O)[C@H](CCCCN)NC(=O)[C@H](Cc1c[nH]c2ccccc12)NC(=O)[C@H](CCC(N)=O)NC(=O)CN)[C@@H](C)CC)C(C)C)C(=O)NCCC(N)=O)C(C)C [ID19, (H-G-Q-W-KIRVRLSA)2-Lys-β-Ala-NH2] (I: H-GQWKIRVRLSAK[βAla]-NH2 / II: H-GQWKIRVRLSA; amide I:12-II:C) | 16 (≈ 5.7 µM) | >64 | >64 | – |
| CC[C@H](C)[C@H](NC(=O)[C@H](CCCCN)NC(=O)[C@H](CCCCN)NC(=O)[C@H](Cc1c[nH]c2ccccc12)NC(=O)CCCCN)C(=O)N[C@@H](CCCNC(=N)N)C(=O)N[C@H](C(=O)N[C@@H](CCCNC(=N)N)C(=O)N[C@@H](CC(C)C)C(=O)N[C@@H](CO)C(=O)N[C@@H](C)C(=O)NCCCC[C@H](NC(=O)[C@H](C)NC(=O)[C@H](CO)NC(=O)[C@H](CC(C)C)NC(=O)[C@H](CCCNC(=N)N)NC(=O)[C@@H](NC(=O)[C@H](CCCNC(=N)N)NC(=O)[C@@H](NC(=O)[C@H](CCCCN)NC(=O)[C@H](CCCCN)NC(=O)[C@H](Cc1c[nH]c2ccccc12)NC(=O)CCCCN)[C@@H](C)CC)C(C)C)C(=O)NCCC(N)=O)C(C)C [ID21, (H-5-Ava-W-KKIRVRLSA)2-Lys-β-Ala-NH2] (I: H-[Ava]WKKIRVRLSAK[βAla]-NH2 / II: H-[Ava]WKKIRVRLSA; amide I:12-II:C) | 8 to 16 | 64 (≈ 22.1 µM) | 64 (≈ 22.1 µM) | – |
| CC[C@H](C)[C@H](NC(=O)[C@H](CCCCN)NC(=O)[C@H](CCCCN)NC(=O)[C@H](CCC(N)=O)NC(=O)CCCCCCCN)C(=O)N[C@@H](CCCNC(=N)N)C(=O)N[C@H](C(=O)N[C@@H](CCCNC(=N)N)C(=O)N[C@@H](CC(C)C)C(=O)N[C@@H](CO)C(=O)N[C@@H](C)C(=O)NCCCC[C@H](NC(=O)[C@H](C)NC(=O)[C@H](CO)NC(=O)[C@H](CC(C)C)NC(=O)[C@H](CCCNC(=N)N)NC(=O)[C@@H](NC(=O)[C@H](CCCNC(=N)N)NC(=O)[C@@H](NC(=O)[C@H](CCCCN)NC(=O)[C@H](CCCCN)NC(=O)[C@H](CCC(N)=O)NC(=O)CCCCCCCN)[C@@H](C)CC)C(C)C)C(=O)NCCC(N)=O)C(C)C [ID23, (H-8-Aoa-OKKIRVRLSA)2-Lys-β-Ala-NH2] (I: H-[Aoc]QKKIRVRLSAK[βAla]-NH2 / II: H-[Aoc]QKKIRVRLSA; amide I:12-II:C) | 32 (≈ 11.2 µM) | >64 | >64 | – |
